Laboratory results reported in the NIST ThermoML archive (doi:10.1016/j.fluid.2005.11.016).

Experiments:
[1] = Liquid
[2] = excess molar enthalpy (molar enthalpy of mixing); xn = mol fraction of the nth substance listed; conditions: 303.15 K, 101 kPa, Liquid, Calvet calorimetry

Cc1cccc(C)n1 [2,6-dimethylpyridine]
[1]
Conditions	vapor or sublimation pressure [kPa]
263.15 K	0.065
273.15 K	0.143
283.15 K	0.296
293.15 K	0.575
303.15 K	1.061
313.15 K	1.868
323.15 K	3.154
333.15 K	5.129
343.15 K	8.066
353.15 K	12.31

Cc1cccc(C)n1 [2,6-dimethylpyridine] + Cc1ccccc1
[2]
Conditions	excess molar enthalpy [kcal/mol]
x1 = 0.0145	0.0148
x1 = 0.2129	0.0198
x1 = 0.2993	0.0203
x1 = 0.3406	0.021
x1 = 0.434	0.0206
x1 = 0.4479	0.0208
x1 = 0.5547	0.0191
x1 = 0.5885	0.0182
x1 = 0.6718	0.0167
x1 = 0.7056	0.0163
x1 = 0.7248	0.0153
x1 = 0.7746	0.012
x1 = 0.8563	0.00837

Cc1cncc(C)c1 [3,5-dimethylpyridine]
[1]
Conditions	vapor or sublimation pressure [kPa]
263.15 K	0.016
273.15 K	0.038
283.15 K	0.083
293.15 K	0.169
303.15 K	0.325
313.15 K	0.596
323.15 K	1.049
333.15 K	1.775
343.15 K	2.904
353.15 K	4.603

Cc1cncc(C)c1 [3,5-dimethylpyridine] + Cc1ccccc1
[2]
Conditions	excess molar enthalpy [kcal/mol]
x1 = 0.1248	0.0131
x1 = 0.1817	0.0163
x1 = 0.2194	0.0186
x1 = 0.3217	0.0215
x1 = 0.4079	0.0253
x1 = 0.5991	0.0263
x1 = 0.6191	0.0256

Cc1ccccc1 [toluene]
[1]
Conditions	vapor or sublimation pressure [kPa]
263.15 K	0.468
273.15 K	0.908
283.15 K	1.666
293.15 K	2.911
303.15 K	4.873
313.15 K	7.852
323.15 K	12.23
333.15 K	18.46
343.15 K	27.12
353.15 K	38.87
